Five compounds from US9133439B2, “Differentiation of human embryonic stem cells” (Janssen Biotech, Inc., priority 2009, dated 2015) can be followed below.

Experiment [1] deals with H1 human embryonic stem cells (differentiated). Nature of the experiment: Example 3: confirmation screen, total cell number (nuclei) by high content analysis. Type of experiment: cell-based. The settings on record: 2.5 uM, steps 3 and 4, triplicate; relative to control treatment. The text has this: All wells were fed and treated identically.
For experiment [2] the test system is unchanged. Type of experiment: cell-based. The following applies: ratio for well treated with individual compound relative to average of wells with DMSO alone.

For `O=C1Cc2c([nH]c3ccc(Br)cc23)-c2ccccc2N1` [Kenpaullone], the “Total Nuclei Ratio” value in experiment [1] was found to be 1.02. Also, the “Total Nuclei” value in experiment [2] was 0.99.
On to `O=c1cc(N2CCOCC2)oc2c(-c3ccccc3)cccc12` [LY 294002], for which the “Total Nuclei Ratio” value in experiment [1] was found to be 1.03. The “Total Nuclei” value in experiment [2] amounted to 1.08.
Take `COc1cccc(-c2cc(=O)c3ccccc3o2)c1N` [PD-98059]: in experiment [1], the “Total Nuclei Ratio” value came out at 0.96. The “Total Nuclei” value in experiment [2] is listed as 0.92.
Consider `Oc1ccc(-c2nc(-c3ccc(F)cc3)c(-c3ccncc3)[nH]2)cc1` [SB-202190], for which the “Total Nuclei Ratio” value in experiment [1] worked out at 1.08. Moreover, the “Total Nuclei” value in experiment [2] came out at 1.08.
`C[S+]([O-])c1ccc(-c2nc(-c3ccc(F)cc3)c(-c3ccncc3)[nH]2)cc1` (stereo not shown) [SB-203580]: in experiment [1], the “Total Nuclei Ratio” value came to 1.05. Moreover, the “Total Nuclei” value in experiment [2] was 1.07.
